Reference: patent publication US5449674A, “2-,3-,5-, and/or 8-substituted dibenzoxazepine compounds, pharmaceutical compositions and methods for treating pain” (G. D. Searle & Co., priority 1994, dated 1995)
In brackets after ≈: the same amount, converted by molar mass. Structures can show the parent of a compound that is named as a salt. Where two headings read alike, the source gives them in different places.

Assays:
water solubility = format: physicochemical; settings: for solubility: water
Method: The title compound was determined to have a high water solubility (>80 mg/mL) by methods known by those of skill in the art.

[1] = tested on: phenylbenzoquinone (PBQ)-induced writhing in mice; assay: Writhing Assay (PBQ-induced writhing, analgesic activity in mice); format: in vivo, Charles River male albino mice; settings: for Writhing assay, number of mice out of nine or ten in which the test compound produced analgesia, I.G. / Writhing assay, number of mice out of nine or ten in which the test compound produced analgesia, S.C.: 30 mg/kg, PBQ i.p. 30 min later; for ED50: Mus musculus
Description: The Writhing Assay is one of the most widely-used experimental procedures for measuring the analgesic activity of different narcotic and nonnarcotic analgesic agents, and involves the continuous, chemically-induced pain of visceral origin to an animal, such as a mouse or rat. [Gyires et al., Arch. int. Pharmacodyn, 267, 131-140 (1984); C. Vander Wende et al., Fed. Proc., 15, 494 (1956); Koster et al., Fed. Proc., 18, 412 (1959); and Witken et al., J. Pharmacol. exp. Ther., 133, 400-408 (1961).]Chemicals which may be used to induce this pain include phenylbenzoquinone (PBQ) and acetic acid. As a result of the chemical irritation to the animal, a characteristic stretching and writhing of the animal (dorsiflexion of the animal's back, extension of its hindlimbs and the strong contraction of its abdominal musculature) will generally occur. […] Drugs which reduce the number of writhes of the animal appear to restore the normal nociceptive threshold of the animal.
Charles River male albino mice, weighing 20 to 30 grams, were used in this assay.
Thirty minutes after subcutaneous or intragastric administration to ten mice of 30 mg per kilogram of body weight of a compound of the present invention ("test compound"), […] per 10 g of body weight of a 0.025% w/v solution of PBQ was injected intraperitoneally into each mouse. Ten mice which were given saline in place of a test compound of the invention were used as a control group.
Five minutes later, each mouse was individually placed into a glass beaker for observation, and the number of writhes occurring during the following ten-minute period was counted.
A test compound was considered to have produced analgesia in a mouse if, in accordance with the conditions set forth above, and under the test criteria employed for this assay, after the administration of 30 mg per kilogram of body weight of a compound of the present invention to the mouse, the number of writhes elicited by a mouse injected with PBQ was equal to, or less than, one-half the median number of writhes recorded for the saline-treated control group of mice that day, as described by Taber in "Predictive Value of Analgesic Assays in Mice and Rats," Advances in Biochemical Psychopharmacology, 8, 191 (1974).
The results for the particular compounds of the present invention analyzed in this assay, and discussed in the examples identified below which correspond thereto, are presented in Table I hereinbelow as fractions under the heading "WRITHING ASSAY." The fractions indicate the number of mice, out of ten, in which the test compound produced analgesia.
The standard initial screening dose of a test compound employed in this assay was […] for both routes of administration. If this initial screening dose of the test compound produced analgesia in seven of ten mice, then the effect of additional doses of the test compound on the writhing response was evaluated, and then the ED50 dose was generally calculated. (The slopes of the dose-response curves for all test compounds analyzed were compared as described by Tallarida and Murray, Manual of Pharmacologic Calculations, Page 11 (Springer Verlag, New York, 1981)).

[2] = target: T1, prostaglandin E2-induced contractions of segments of guinea pig ileum (Cavia porcellus, UniProt A0A286XHJ6); assay: Prostaglandin (PGE) Antagonism Assay; format: cell-based; settings: isolated ileum, 37° C., read-out: PGE in guinea pig ileum pA2 (converted)
T1 construct: Segments of ileum about 2 cm long were then cut and mounted in a 10 mL tissue bath; from tissue; host or cells: guinea pig ileum segments
T1 sequence (A0A286XHJ6 1-405): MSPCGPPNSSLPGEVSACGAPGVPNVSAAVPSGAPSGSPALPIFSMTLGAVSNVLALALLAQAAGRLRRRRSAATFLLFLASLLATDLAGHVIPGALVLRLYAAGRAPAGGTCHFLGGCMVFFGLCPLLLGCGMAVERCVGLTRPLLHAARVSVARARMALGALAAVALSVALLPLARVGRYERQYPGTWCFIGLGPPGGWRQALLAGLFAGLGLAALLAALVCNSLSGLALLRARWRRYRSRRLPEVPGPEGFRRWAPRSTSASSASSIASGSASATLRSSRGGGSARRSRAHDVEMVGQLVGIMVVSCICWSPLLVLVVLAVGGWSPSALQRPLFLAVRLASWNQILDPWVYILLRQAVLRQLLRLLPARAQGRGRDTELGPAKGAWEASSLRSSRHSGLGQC
Method: In order to determine the effectiveness of several of the compounds of the present invention ("test compounds") as prostaglandin E2 antagonists,a prostaglandin antagonism assay was conducted, as described below, to determine the ability of these compounds to inhibit prostaglandin E2 -induced contractions of segments of guinea pig ileum.
Male albino guinea pigs weighing 200 to 500 grams were sacrificed by cervical dislocation. The ilea were then quickly removed from the guinea pigs and placed in a modified Tyrode solution, a solution which is known to those skilled in the art, containing one-half of the usual amount of magnesium ions.
Segments of ileum about 2 cm long were then cut and mounted in a 10 mL tissue bath containing the modified Tyrode solution. The solution was maintained at 37° C. and aerated with a gaseous mixture of 95% oxygen and 5% carbon dioxide. Data for a control prostaglandin E2 dose response curve plotting concentration of prostaglandin E2 versus the intensity of contractions, detected isotonically, was then obtained by experimentally adjusting the dose of the prostaglandin E2 being injected into the tissue bath, in a manner known by those of skill in the art. […]
A dose ratio of EC50 doses was then calculated from the results of each test in a manner known by those of skill in the art. […]

[3] = tested on: prostaglandins, isolated smooth muscle preparations; settings: cited from earlier work
micturition reflex = settings: urethane-anesthetized rats; cited from earlier work

## CCS(=O)(=O)CCC(=O)NNC(=O)N1Cc2ccccc2Oc2ccc(Cl)cc21 [8-chlorodibenz[b,f][1,41oxazepine-10(11H)-carboxylic acid, 2-[3(ethylsulfonyl)-1-oxopropyl]hydrazide, reference compound]
Water solubility; comparison compound
  solubility: 80 µg/mL (≈ 183 µM)

## CCCCOC(=O)/C=C/C(=O)N1Cc2ccccc2Oc2ccc(Cl)cc21 [Example 4, Butyl 4-(8-chloro-10,11-dihydrodibenz[b,f]-oxazepin-10-yl)-4-oxo-2E-butenoate]
[1]; intragastric
  Writhing assay, number of mice out of nine or ten in which the test compound produced analgesia, I.G.: 6/10
[1]; subcutaneous
  Writhing assay, number of mice out of nine or ten in which the test compound produced analgesia, S.C.: 6/10

## O=C(O)/C=C\C(=O)N1Cc2ccccc2Oc2ccc(Cl)cc21 [Example 2, 4-(8-chloro-10,11-dihydrodibenz[b,f]-oxazepin-10-yl)-4-oxo-2Z-butenoic acid]
[1]; intragastric
  Writhing assay, number of mice out of nine or ten in which the test compound produced analgesia, I.G.: 1/10
[1]; subcutaneous
  Writhing assay, number of mice out of nine or ten in which the test compound produced analgesia, S.C.: 4/10

## COC(=O)/C=C/C(=O)N1Cc2ccccc2Oc2ccc(Cl)cc21 [Example 7, Methyl 4-(8-chloro-10,11-dihydrodibenz[b,f]-oxazepin-10-yl)-4-oxo-2E-butenoate]
[1]; intragastric
  Writhing assay, number of mice out of nine or ten in which the test compound produced analgesia, I.G.: 3/10
[1]; subcutaneous
  Writhing assay, number of mice out of nine or ten in which the test compound produced analgesia, S.C.: 6/9

## O=C(CCC(=O)N1Cc2ccccc2Oc2ccc(Cl)cc21)NCc1ccncc1 [Example 9, 8-chloro-γ-oxo-N-(4-pyridinylmethyl)dibenz[b,f]-[1,4]oxazepine-10(11)-butanamide]
[2]
  Kb: 2400 nM
[1]; intragastric
  Writhing assay, number of mice out of nine or ten in which the test compound produced analgesia, I.G.: 6/10

## CN(C)CCNC(=O)CCC(=O)N1Cc2ccccc2Oc2ccc(Cl)cc21 [Example 10, 8-chloro-N-[2-(dimethylamino)ethyl]-γ-oxodibenz [b,f][1,4]oxazepine-10(11)-butanamide]
[1]; intragastric
  Writhing assay, number of mice out of nine or ten in which the test compound produced analgesia, I.G.: 6/9

## CCCCOC(=O)/C=C\C(=O)N1Cc2ccccc2Oc2ccc(Cl)cc21 [Example 3, Butyl 4-(8-chloro-10,1! -dihydrodibenz[b,f]-oxazepin-10-yl)-4-oxo-2Z-butenoate]
[1]; intragastric
  Writhing assay, number of mice out of nine or ten in which the test compound produced analgesia, I.G.: 6/10
[1]; subcutaneous
  Writhing assay, number of mice out of nine or ten in which the test compound produced analgesia, S.C.: 4/10

## CC(=O)NNC(=O)N1Cc2ccccc2Oc2ccc(Cl)cc21 [SC-19220]
[3]
  inhibition of stimulant actions of prostaglandins (in words): inhibit the stimulant actions of prostaglandins on isolated smooth muscle preparations
Micturition reflex
  bladder capacity (in words): increased the bladder capacity
  voiding efficiency of micturition (in words): reduced the voiding efficiency of micturition

## CCCCNC(=O)/C=C\C(=O)N1Cc2ccccc2Oc2ccc(Cl)cc21 [Example 5]
[1]; intragastric
  Writhing assay, number of mice out of nine or ten in which the test compound produced analgesia, I.G.: 4/10
[1]; subcutaneous
  Writhing assay, number of mice out of nine or ten in which the test compound produced analgesia, S.C.: 6/10

## CN(C)CCNC(=O)/C=C/C(=O)N1Cc2ccccc2Oc2ccc(Cl)cc21 [Example 8, 4-(8-chloro-10,11-dihydrodibenz[b,f]oxazepin-10-yl) -N-[2-(dimethylamino)ethyl]-4-oxo-2E-butenamide, monohydrochloride]
[2]
  Kb: 1860 nM
Water solubility
  water solubility (in words): highly water soluble
  solubility: > 80000 µg/mL
[1]; po, intragastric, read-out: Writhing assay ED50 Dose, I.G.
  ED50: 8.3 mg/kg
[1]; sc, subcutaneous, read-out: Writhing assay ED50 Dose, S.C.
  ED50: 8.3 mg/kg
[1]; among compounds tested
  Writhing Assay potency ranking (in words): most potent compound of the invention tested in this assay

## O=C(Cc1ccccc1)NNC(=O)N1Cc2ccccc2Oc2ccc(Cl)cc21 [SC-18637]
[3]
  inhibition of stimulant actions of prostaglandins (in words): inhibit the stimulant actions of prostaglandins on isolated smooth muscle preparations
